Earlier results, collected in patent US7815920B2, “Method of preparing an antigen-containing formulation” (Allergy Therapeutics (UK) Ltd, priority 1998, dated 2010).

Conditions: for Water Solubility: at 25° C.

Compound | Water Solubility | solubility in water (in words)
NC(=O)C[C@H](N)C(=O)O [asparagine] | 3.5 g/100 ml H2O | –
NCCCC[C@H](N)C(=O)O [lysine] | very | quite soluble in water
CSCC[C@H](N)C(=O)O [methionine] | 3.4 g/100 ml H2O | –
NC(=O)CC[C@H](N)C(=O)O [glutamine] | 3.7 g/100 ml H2O | –
CC(C)[C@H](N)C(=O)O [valine] | 8.9 g/100 ml H2O | –
N[C@@H](Cc1c[nH]cn1)C(=O)O [histidine] | 4.2 g/100 ml H2O | –
N[C@@H](Cc1c[nH]c2ccccc12)C(=O)O [tryptophan] | 1.1 g/100 ml H2O | –
CC(C)C[C@H](N)C(=O)O [leucine] | 2.4 g/100 ml H2O | –
C[C@H](N)C(=O)O [alanine] | 16.7 g/100 ml H2O | –
N[C@@H](Cc1ccccc1)C(=O)O [phenylalanine] | 3.0 g/100 ml H2O | –
CC[C@H](C)[C@H](N)C(=O)O [isoleucine] | 4.1 g/100 ml H2O | –
N[C@@H](CS)C(=O)O [cysteine] | very | quite soluble in water
